# US9228209B2, “Method for producing triptolide” (priority 2009, dated 2016)
# How the values were obtained:
# [1] = test system: transcription factor NFκB; experiment: Test of NFκB inhibition (TNFα stimulation in HaCaT keratinocyte cells); type: cell-based, human
# From the text: Transcription factor NFκB controls the expression of a large number of genes involved in inflammatory response regulation. Certain proinflammatory stimuli, such as tumor necrosis factor-α (TNFα), lead to NFκB activation, i.e., to its nuclear translocation. Consequently, NFκB will induce the transcription of proinflammatory genes coding for cytokines, chemokines, adhesion molecules, growth factors and inducible enzymes such as cyclooxygenase-2 (COX-2) and nitric oxide synthase (iNOS). NFκB plays a key role in the initiation and amplification of the inflammatory response. Certain chronic inflammatory diseases of the skin, such as atopic dermatitis or psoriasis, are characterized by deregulation of the expression of inflammation mediators expressed by keratinocytes. The anti-inflammatory activity of pure triptolide (TRP) in relation to that of plant cell culture extracts (IBO.18.134) with equivalent amounts of TRP is evaluated.
# FIG. 6 represents the inhibition of various extracts on NFκB activation following TNFα stimulation in HaCaT keratinocyte cells. As a positive control, dexamethasone (2 μM), which inhibits NFκB activation by 36%, was used.
# RAW264.7 cells = experiment: NO2− production by RAW264.7 cells stimulated with LPS (Griess reagent); type: cell-based, murine; conditions: identical TRP concentrations; 1 μg/ml LPS, 24 hours
# Procedure: To this end, the test selected was NO2^− production by RAW264.7 cells stimulated with lipopolysaccharides (LPS).
# Briefly, RAW264.7 cells (murine macrophages) were seeded at 1.4·10^5 cells/cm^2. After 24 hours, the cells were incubated for 1 hour with various concentrations of the products to be tested and then stimulated for 24 hours with 1 μg/ml of LPS. NO2 concentration was estimated in the culture supernatants using the Griess reagent.
# The results (FIG. 7) illustrate NO2^− production obtained under the various conditions specified above. The percent inhibition calculated in relation to the LPS control appears in each histogram. Lastly, IC50 was calculated from these values (in bold blue).
Structure (SMILES),"inhibition at 2 µM ([1]; Homo sapiens, HaCaT, read-out: inhibition of NFκB activation) [%]","inhibition of NFκB activation ([1]; from 8 nM to 83 nM, TNFα stimulation, HaCaT keratinocyte cells)","NFκB inhibition, PCC extract compared with pure triptolide ([1]; identical triptolide concentrations of 8 nM, 28 nM and 83 nM)",inhibition of nitrite production induced by LPS (RAW264.7 cells)
C[C@@H]1C[C@H]2[C@@H]3CCC4=CC(=O)C=C[C@]4(C)[C@@]3(F)[C@@H](O)C[C@]2(C)[C@@]1(O)C(=O)CO [dexamethasone],36,,,
"CC(C)[C@]12O[C@H]1[C@@H]1O[C@]13[C@]1(O[C@H]1C[C@H]1C4=C(CC[C@@]13C)C(=O)OC4)[C@@H]2O [triptolide, Triptolide]",,inhibits in a dose-dependent manner,equivalent,inhibit nitrite production
